In patent publication US4638070A, “Heterocyclic amino-alcohol derivatives” (Continental Pharma, priority 1980, dated 1987):

Assays:
[1] = Acute toxicity, oral, LD50 (Litchfield and Wilcoxon); settings: mouse, in vivo, fasted male mice, confidence limits p=95% in brackets
Protocol: (1) The acute toxicity was determined on fasted male mice. The tested substances were orally administered and LD50 values (lethal dose for 50% of animals) were calculated according to the method of Litchfield and Wilcoxon (J. Pharmacol. exp. Ther. 96, 94-113, 1949). These LD50 values are given in mg/kg and also, when possible, with their confidence limits for p=95%.

[2] = tested on: unanaesthetized, hypertension-suffering rat; assay: Antihypertensive activity (systolic arterial pressure), oral; assay type: in vivo; settings: 60 mg/kg, hypertensive rat, 3 hours
Protocol: (2) The antihypertensive activity was measured on unanaesthetized, hypertension-suffering rat. The tested substances were orally given at a rate of 60 mg/kg. The systolic arterial pressure was measured every 30 minutes for 2 hours before and for 3 hours after the tested product was given. Results are expressed as follows: […]
O: no reduction of arterial pressure.
+: reduction lower than 10 mm Hg.
++: reduction of 10 to 20 mm Hg.
+++: reduction higher than 20 mm Hg.

[3] = tested on: femoral artery; assay: Vasodilator activity, femoral artery (technique of perfused paw); assay type: in vivo; set-up: key: O: no action; +: slight activity; ++: effect equal to half the effect of papaverine; +++: effect equal to that of papaverine; ++++: effect higher than that of papaverine; settings: intra-arterial, 30 mg/kg, anaesthetized dog, vs papaverine at same dose
Protocol: (3) The vasodilator activity was measured at the level of femoral artery on anaesthetized dog (technique of perfused paw). The tested substances were given intra-arterially at the rate of 30 mg/kg. Results are expressed with respect to papaverine tested at the same dose.
++: effect equal to half the effect of papaverine.
+++: effect equal to that of papaverine.
++++: effect higher than that of papaverine.

[4] = tested on: guinea-pig ileum (histamine contractions); assay: Antispasmodic activity in vitro, contractions caused by histamine; settings: added 15 minutes before spasm-producing agent
Protocol: (§1) (4) The antispasmodic activity was measured in vitro, on guinea-pig ileum, the contractions of which were caused by histammne (Hist.), acetylcholine (Achol) or barium chloride (BaCl2). The tested products were added to perfusion bath 15 minutes before the spasm-producing agents.
(§2) The dose is given in micograms (μg) per ml of bath causing complete spasm inhibition.

[5] = tested on: guinea-pig ileum (acetylcholine contractions); assay: Antispasmodic activity in vitro, contractions caused by acetylcholine; settings: added 15 minutes before spasm-producing agent
Protocol: as §1, §2

Structure (SMILES) | LD50 [1] [mg/kg] | ANTIHYPERTENSIVE ACTIVITY [2] | VASODILATOR ACTIVITY [3] | ANTISPASMODIC ACTIVITY HIST. (dose causing complete spasm inhibition) [4] [μg per ml] | ANTISPASMODIC ACTIVITY ACHOL (dose causing complete spasm inhibition) [5] [μg per ml]
CC(NCCCc1ccccc1)C(O)c1ccc2c(c1)CCC2 (stereo not shown) [No 165] | 3800 | +++ (reduction higher than 20 mm Hg) | +++ | 1.7 | 1.7
CC(NCCCc1ccc(Cl)cc1)C(O)c1ccc2c(c1)CCCS2 (stereo not shown) [No 78] | 725 | +++ (reduction higher than 20 mm Hg) | ++++ | 0.8 | 1.7
CC1Cc2cc(C(O)C(C)NCCOc3ccc(Cl)cc3)ccc2O1 (stereo not shown) [No 84] | 1200 | +++ (reduction higher than 20 mm Hg) | +++ | 8.3 | 3.3
CC(NCCOc1ccc(Cl)cc1)C(O)c1ccc2c(c1)CCC2 (stereo not shown) [No 169] | > 4000 | +++ (reduction higher than 20 mm Hg) | +++ | 3.3 | 0.8
CC(NCCCOc1ccccc1)C(O)c1ccc2c(c1)CCCS2 (stereo not shown) [No 75] | > 4000 | +++ (reduction higher than 20 mm Hg) | +++ | 0.8 | 1.7
CCCCSCCCNC(C)C(O)c1ccc2c(c1)CCC2 (stereo not shown) [No 178] | 870 | ++ (reduction of 10 to 20 mm Hg) | ++++ | 1.7 | 
CCC(=O)c1ccc(OCCNC(C)C(O)c2ccc3c(c2)CCS3)cc1 (stereo not shown) [No 108] | > 4000 | ++ (reduction of 10 to 20 mm Hg) | +++ | 0.8 | 3.3
CCC(=O)OC(c1ccc2c(c1)CCS2)C(C)NCCCCc1ccccc1 (stereo not shown) [No 118] | 2020 | +++ (reduction higher than 20 mm Hg) | ++ | 0.8 | 1.7
CC(NCCCSc1ccccc1)C(O)c1ccc2c(c1)CCS2 (stereo not shown) [No 60] | > 2000 | +++ (reduction higher than 20 mm Hg) | +++ | 3.3 | 1.7
CC(NCCCCc1ccccc1)C(O)c1ccc2c(c1)CCO2 (stereo not shown) [No 35] | 430 | +++ (reduction higher than 20 mm Hg) | ++ | 0.8 | 1.7
CC(NCCCC(=O)c1ccc(F)cc1)C(O)c1ccc2c(c1)CCCS2 (stereo not shown) [No 102] | > 4000 | +++ (reduction higher than 20 mm Hg) | ++ | 0.8 | 0.3
CC1Cc2cc(C(O)C(C)NCCSc3ccccc3)ccc2S1 (stereo not shown) [No 106] | > 4000 | ++ (reduction of 10 to 20 mm Hg) | +++ | 1.7 | 1.7
CC(NCCCSc1ccccc1)C(O)c1ccc2c(c1)CCCS2 (stereo not shown) [No 37] | > 4000 | +++ (reduction higher than 20 mm Hg) | +++ | 1.7 | 1.7
Cc1ccc(CCCCNC(C)C(O)c2ccc3c(c2)CCCS3)cc1 (stereo not shown) [No 34] | ~4000 | +++ (reduction higher than 20 mm Hg) | +++ | 0.8 | 0.8
C=CCCCCCCCCCNC(C)C(O)c1ccc2c(c1)CCS2 (stereo not shown) [No 92] | > 4000 | ++ (reduction of 10 to 20 mm Hg) |  | 16.7 | 16.7
CC1Cc2cc(C(O)C(C)NCCOc3ccccc3)ccc2S1 (stereo not shown) [No 61] | ~4000 | +++ (reduction higher than 20 mm Hg) | ++ | 3.3 | 3.3
CC(NCCCCc1ccccc1)C(O)c1ccc2c(c1)SCCO2 (stereo not shown) [No 122] | 1650 | +++ (reduction higher than 20 mm Hg) | ++++ | 0.3 | 
CC(NCCOc1ccccc1)C(O)c1ccc2c(c1)CCC2 (stereo not shown) [No 168] | > 2000 | +++ (reduction higher than 20 mm Hg) | ++++ | 3.3 | 3.3
CC(NCCCCc1ccc(Cl)cc1)C(O)c1ccc2c(c1)CCC2 (stereo not shown) [No 167] | ~270 | +++ (reduction higher than 20 mm Hg) | +++ | 0.8 | 0.8
CC1Cc2cc(C(O)C(C)NCCOc3ccc(Cl)cc3)ccc2S1 (stereo not shown) [No 58] | > 4000 | +++ (reduction higher than 20 mm Hg) | +++ | 1.7 | 1.7
CC1Cc2cc(C(O)C(C)NCCOc3ccccc3)ccc2O1 (stereo not shown) [No 89] | 550 | +++ (reduction higher than 20 mm Hg) | +++ | 8.3 | 8.3
CC1Cc2cc(C(O)C(C)NCCCCc3ccc(Cl)cc3)ccc2O1 (stereo not shown) [No 65] | 160 | +++ (reduction higher than 20 mm Hg) | +++ | 0.8 | 1.7
CC(NCCc1ccccc1)C(O)c1ccc2c(c1)CCS2 (stereo not shown) [No 6] | < 500 | + (reduction lower than 10 mm Hg) | +++ |  | 3.3
Cc1ccc(CCCCNC(C)C(O)c2ccc3c(c2)CCS3)cc1 (stereo not shown) [No 32] | 4000 | +++ (reduction higher than 20 mm Hg) |  | 0.8 | 1.7
CC(NCCOc1ccccc1)C(O)c1ccc2c(c1)SCCO2 (stereo not shown) [No 123] | > 4000 | +++ (reduction higher than 20 mm Hg) | ++++ | 0.8 | 
CC1Cc2cc(C(O)C(C)NCCOCc3ccccc3)ccc2S1 (stereo not shown) [No 120] | ~1450 | ++ (reduction of 10 to 20 mm Hg) | +++ | 0.8 | 
CC(NCCOc1ccccc1)C(O)c1ccc2c(c1)SCCS2 (stereo not shown) [No 104] | > 4000 | + ++ |  | 8.3 | 16.7
CC1CCc2cc(C(O)C(C)NCCCCc3ccccc3)ccc2S1 (stereo not shown) [No 5, 1-(2-methyl-6-thiochromanyl)-2-(4-phenylbutylamino)-1-propanol] | 3600 | ++ (reduction of 10 to 20 mm Hg) | ++++ |  | 3.3
CCCCCCCC(=O)OC(c1ccc2c(c1)CCS2)C(C)NCCCCc1ccccc1 (stereo not shown) [No 133] | 2600 | +++ (reduction higher than 20 mm Hg) |  |  | 
